For data set [1], the target named is T1, Plasmodium falciparum lysyl t-RNA synthetase (Pf-KRS1) (Plasmodium falciparum, UniProt Q8IDJ8).
T1 construct: Pf KRS1-; made in house; host or cells: E. coli BL21 (DE3)
Briefly: Pf-KRS1 inhibition biochemical assay (Kinase-Glo, ATP depletion). The procedure, abridged: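 Recombinant Pf-KRS1 (75 nM working concentration) in HEPES/KOH/MgCl2/KCl buffer with 3 μM ATP, 60 μM L-lysine, 0.4 mg/ml yeast tRNA and pyrophosphatase; compounds at 50 μM–2.5 nM final. Reaction ran 5 h at room temperature, then remaining ATP was read by Kinase-Glo luminescence. IC50 came from nonlinear fits of % inhibition against controls.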
For orientation: Kinase-Glo measures the ATP left after a reaction by luminescence.

Data set [2] deals with Plasmodium falciparum strain 3D7. The experiment in a line: Plasmodium falciparum 3D7 in vitro growth inhibition (SYBRgreen I). In kind it is cell-based. The note with it: Plasmodium falciparum, 3D7; read-out: pEC50 for Pf 3D7 (converted). In outline: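 10-point, 1-in-3 dilution series from a top concentration of 50 μM; parasite growth read as SYBRgreen I fluorescence on double-stranded DNA (ex 485/em 528 nm). EC50 = concentration causing 50% parasite death, from at least 3 independent experiments.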

Another data set has as its system M. tuberculosis H37Rv. The experiment in a line: In vitro inhibition of M. tuberculosis H37Rv (MIC, resazurin). In kind it is cell-based. The note with it: Mycobacterium tuberculosis, read-out: Mtb MIC. A general note: Alamar Blue is a resazurin reagent that responds to reducing activity.
The subject of data set [3] is Cryptosporidium parvum. The experiment in a line: In vitro Crytosporidium inhibition assay. In kind it is cell-based. As to conditions: for EC50: Cryptosporidium parvum, read-out: Cryptosporidium parvum pEC50 (converted). From the text:
Assay Method for Measurement of In Vitro Inhibition of Crytosporidium.
These experiments were run in accordance with the method of Besssoff et. al. Antimicrob. Agents Chemother. 2013, 57:1804-1814. Results from these experiments are provided in the Experimental Results hereinafter.

The next data set has as its system Hep G2. The experiment in a line: Hep G2 in-vitro cytotoxicity assay. In kind it is cell-based. The note with it: Homo sapiens, HepG2, read-out: Hs HEPG2 pEC50 (converted). The procedure, abridged:
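Hep G2 human hepatocyte carcinoma cells serve as a general mammalian cell toxicity indicator, following the Mersch-Sundermann procedure.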

The subject of data set [4] is Cryptosporidium parvum. Briefly: Anti-Cryptosporidium in vivo efficacy, NOD SCID gamma mouse model. The note with it: 50 mg/kg, twice a day (bid), 4 days. The source says: Measurement of Anti-Cryptosporidium In Vivo Efficacy
The in vivo measurement of the potential efficacy of compounds of formula (I) in two cryptosporidium models has been carried out.
The cryptosporidiosis NOD SCID gamma mouse model were run as follows: Male NOD SCID gamma mice (NOD.Cg-Prkdc^scid Il2rg^tm1Wjl/SzJ, Jackson Labs) were infected approximately 2 weeks post weaning with 10^5 C. parvum Iowa strain oocysts by oral gavage. Four mice were used per experimental group. This establishes a chronic, asymptomatic infection of the small intestine, cecum, and biliary tree. Fecal parasite shedding is monitored by quantitative PCR to amplify C. parvum DNA. One week after infection (which is the timing with which shedding becomes uniformly detected), compounds are dosed by oral gavage based. Treatment continued for four days total. Fecal oocyst shedding is reported on day 1 (7 days after initial infection with sample taken just prior to the first dose of compound) and day 5 (1 day after completion of the last dose).

Data set [5] concerns Leishmania donovani. The experiment in a line: Leishmania donovani intramacrophage inhibition assay (Ld-INMAC). In kind it is cell-based. The note with it: intramacrophage amastigotes in THP-1 cells, read-out: Ld-INMAC pEC50 (converted). On the procedure: Assay Method for Measurement of In Vitro Inhibition of Leishmania donovani.
These experiments were run in accordance with the method as detailed herein and results from these experiments are provided in the Experimental Results hereinafter.
The intramacrophage Leishmania assay was performed as described in de Rycker et al (Antimicrob Agents Chemother, 2013 July; 57(7):2913-22. doi: 10.1128/AAC.02398-12). Briefly, 1 μl of compound was pre-dispensed into 384 well sterile intermediary plates. For single point screening, amphotericin B was added to all wells of column 24 as a positive control (final concentration 2 μM) and DMSO to column 23. For potency determinations, ten-point, one in three dilution curves were created with the highest concentration being 50 μM and on each plate a control curve of amphotericin B was included. Controls were as follows: columns 11 and 12: DMSO, columns 23 and 24: amphotericin B (final concentration 2 μM). To the intermediary plates, 100 μl of THP-1 media was added and plates were shaken for >5 min to ensure complete mixing. THP-1 cells (8,000 per well, 50 μl) were plated into black clear-bottom 384 well plates (Corning) in presence of 10 nM PMA. After 20 min at room temperature, the plates were incubated at 37° C. under 5% CO2 in a humidified incubator for 75 h. The cells were then washed with […] sterile phosphate buffered saline (PBS) supplemented with 1 mM CaCl2, 0.5 mM MgCl2, 0.1% (w/v) bovine serum albumin (PBS-A) and amastigotes were added to all wells at a multiplicity of infection of 5 (40,000 amastigotes per well). After 40 min at room temperature, plates were returned to the incubator. Amastigotes were incubated in the presence of macrophages for 16 h. Any remaining extracellular amastigotes were subsequently removed with an overflow wash of 1 ml PBS-A per well (wash buffer is being aspirated from the top of the well as it is being dispensed) followed by addition of 25 μl of the compound pre-dilutions using a Matrix Hydra DT pipetting station. The final dilution of each compound was 200-fold. Plates were incubated for 72 h and then washed (250 μl PBS-A) and fixed (4% (v/v) formaldehyde-PBS, 30 min, room temperature). After fixation, the wells were washed with 250 μl PBS, stained (10 μg/ml DAPI, 0.4 μg ml-1 HCS Cellmask Deep Red in PBS+0.1% (v/v) Triton X-100, 30 min, room temperature) and washed with 250 μl PBS. Finally, PBS+0.05% (v/v) thimerosal was added to the wells, the plates were sealed and imaged on a high-content microscope (GE IN Cell 1000 or GE IN Cell 2000) using a 10× objective. Image analysis was carried out with GE IN Cell Analyzer 1000 Workstation using the “Multi Target Analysis” module. […]

The next data set deals with THP-1 cells. The experiment in a line: THP-1 host cell count in intramacrophage Leishmania assay. As to conditions: Homo sapiens, host cell toxicity, read-out: THP1 pEC50 (converted). In kind it is cell-based. As for the experimental part:
The intramacrophage Leishmania assay was performed as described in de Rycker et al (Antimicrob Agents Chemother, 2013 July; 57(7):2913-22. doi: 10.1128/AAC.02398-12). Briefly, 1 μl of compound was pre-dispensed into 384 well sterile intermediary plates. For single point screening, amphotericin B was added to all wells of column 24 as a positive control (final concentration 2 μM) and DMSO to column 23. For potency determinations, ten-point, one in three dilution curves were created with the highest concentration being 50 μM and on each plate a control curve of amphotericin B was included. Controls were as follows: columns 11 and 12: DMSO, columns 23 and 24: amphotericin B (final concentration 2 μM). To the intermediary plates, 100 μl of THP-1 media was added and plates were shaken for >5 min to ensure complete mixing. THP-1 cells (8,000 per well, 50 μl) were plated into black clear-bottom 384 well plates (Corning) in presence of 10 nM PMA. After 20 min at room temperature, the plates were incubated at 37° C. under 5% CO2 in a humidified incubator for 75 h. The cells were then washed with […] sterile phosphate buffered saline (PBS) supplemented with 1 mM CaCl2, 0.5 mM MgCl2, 0.1% (w/v) bovine serum albumin (PBS-A) and amastigotes were added to all wells at a multiplicity of infection of 5 (40,000 amastigotes per well). After 40 min at room temperature, plates were returned to the incubator. Amastigotes were incubated in the presence of macrophages for 16 h. Any remaining extracellular amastigotes were subsequently removed with an overflow wash of 1 ml PBS-A per well (wash buffer is being aspirated from the top of the well as it is being dispensed) followed by addition of 25 μl of the compound pre-dilutions using a Matrix Hydra DT pipetting station. The final dilution of each compound was 200-fold. Plates were incubated for 72 h and then washed (250 μl PBS-A) and fixed (4% (v/v) formaldehyde-PBS, 30 min, room temperature). After fixation, the wells were washed with 250 μl PBS, stained (10 μg/ml DAPI, 0.4 μg ml-1 HCS Cellmask Deep Red in PBS+0.1% (v/v) Triton X-100, 30 min, room temperature) and washed with 250 μl PBS. Finally, PBS+0.05% (v/v) thimerosal was added to the wells, the plates were sealed and imaged on a high-content microscope (GE IN Cell 1000 or GE IN Cell 2000) using a 10× objective. Image analysis was carried out with GE IN Cell Analyzer 1000 Workstation using the “Multi Target Analysis” module. Settings for segmentation were as follows: nuclei: minimum area: 142.384 μm^2, sensitivity: 81, method: top-hat; cells: characteristic area: 2500 μm^2, sensitivity: 60, method: multiscale top-hat; organelles (amastigotes): granule size 1-3, 3 scales, sensitivity: 90, detection in entire cell. […]

Data set [6] concerns Leishmania donovani. Briefly: Ld-cAxAm-TP-pMIC assay. In kind it is cell-based. The note with it: read-out: Ld-cAxAm-TP-pMIC pEC50 (converted).
The target in another data set is PfLysRS (Plasmodium falciparum, UniProt Q8IDJ8). The note with it: cited from earlier work.
Data set [7] concerns the target Schistosoma mansoni (Sm) lysyl-tRNA synthetase. The note with it: cited from earlier work.
Data set [8] relates to blood and liver stages of Plasmodium. As to conditions: cited from earlier work.
For data set [9] the following is noted: cited from earlier work.
The next data set deals with Plasmodium falciparum. The experiment in a line: Anti-malarial in vivo efficacy, Plasmodium falciparum SCID mouse model. The note with it: 20 mg/kg, 4 days. The source says: Measurement of Anti-Malarial In Vivo Efficacy The in vivo measurement of the potential efficacy of compounds of formula (I) in a malarial model has been carried out. These in vivo experiments were run in accordance with the method published in Jimenez-Diaz, M. B. et al., Antimicrob. Agents Chemother. 53, 4533-4536, (2009). Results from these experiments are provided in the Experimental Results hereinafter.

Setting [10] is: read-out: Pf-KRS pIC50 (converted).

The values that follow come from patent US11485720B2, “Anti-infective agents” (University of Dundee, priority 2016, dated 2022).

In brackets after ≈: the same amount, converted by molar mass. Several values for one entry are separate records, joined by “and”; a condition that tells them apart may be missing. Equal entries are not always repeated. Where two headings read alike, the source gives them in different places.

T1 sequence (Q8IDJ8 entry or part of it, looked up, natural form): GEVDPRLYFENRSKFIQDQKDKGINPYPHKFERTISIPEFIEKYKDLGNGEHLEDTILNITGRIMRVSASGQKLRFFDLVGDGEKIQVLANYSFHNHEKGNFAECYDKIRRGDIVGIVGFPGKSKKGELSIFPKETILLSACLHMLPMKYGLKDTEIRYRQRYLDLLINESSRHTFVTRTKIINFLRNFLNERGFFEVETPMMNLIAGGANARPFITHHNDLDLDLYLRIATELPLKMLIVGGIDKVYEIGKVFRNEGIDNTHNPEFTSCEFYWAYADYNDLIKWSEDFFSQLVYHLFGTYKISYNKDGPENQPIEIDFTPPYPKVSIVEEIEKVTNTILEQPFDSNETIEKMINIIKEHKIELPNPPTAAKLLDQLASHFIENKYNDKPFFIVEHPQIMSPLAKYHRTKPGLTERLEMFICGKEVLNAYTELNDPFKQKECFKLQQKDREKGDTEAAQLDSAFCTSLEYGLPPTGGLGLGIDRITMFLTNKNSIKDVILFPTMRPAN
Chain of PfLysRS (Q8IDJ8 1-583): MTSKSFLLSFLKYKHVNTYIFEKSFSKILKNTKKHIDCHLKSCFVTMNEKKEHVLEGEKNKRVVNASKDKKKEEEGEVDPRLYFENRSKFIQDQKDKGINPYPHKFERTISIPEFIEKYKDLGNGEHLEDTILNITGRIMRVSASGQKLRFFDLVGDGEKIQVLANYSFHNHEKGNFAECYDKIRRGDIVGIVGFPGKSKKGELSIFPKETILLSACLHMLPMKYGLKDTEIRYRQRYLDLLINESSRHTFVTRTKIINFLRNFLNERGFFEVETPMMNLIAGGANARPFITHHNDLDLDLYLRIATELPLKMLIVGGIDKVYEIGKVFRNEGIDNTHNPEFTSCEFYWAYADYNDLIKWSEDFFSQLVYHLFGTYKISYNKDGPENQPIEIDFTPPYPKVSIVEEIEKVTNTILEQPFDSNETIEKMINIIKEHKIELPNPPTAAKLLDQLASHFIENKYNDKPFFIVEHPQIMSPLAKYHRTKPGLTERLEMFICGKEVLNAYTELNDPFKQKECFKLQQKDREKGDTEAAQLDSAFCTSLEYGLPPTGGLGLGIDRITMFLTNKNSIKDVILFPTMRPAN

On to `O=C(NCC1(O)CCCCC1)c1cc(=O)c2cc(F)cc(O)c2o1` [Example 74, 6-fluoro-8-hydroxy-N-((1-hydroxycyclohexyl)methyl)-4-oxo-4H-chromene-2-carboxamide], for which the IC50 in [1] (setting [10]) was 50.1 nM. For the same molecule, the EC50 was 63.1 nM in data set [2], 39.8 nM in the data set on Cryptosporidium parvum [3] and 31600 nM with Hep G2. Also, in the data set with M. tuberculosis H37Rv, the MIC (as a rule, the lowest concentration that inhibits growth of the organism) is 25 µM (≈ 8.38 µg/mL). In the data set with Cryptosporidium parvum [4], the “% Reduction in parasitaemia” value turned out to be 92.5%.
Consider `O=C(NCC1(O)CCCCC1)c1cc(=O)c2cc(O)cc(F)c2o1` [Example 81, 8-fluoro-6-hydroxy-N-((1-hydroxycyclohexyl)methyl)-4-oxo-4H-chromene-2-carboxamide], for which the IC50 in [1] (setting [10]) is 200 nM. For the same molecule, the EC50 in the data set with Cryptosporidium parvum [3] was 126 nM; with Leishmania donovani [5], 20000 nM; with THP-1 cells, > 50100 nM; with Leishmania donovani [6], 6310 nM; in the data set with Hep G2 it was 15800 nM.
In turn, `O=C(NCC1(O)CCCCC1)c1cc(=O)c2ccc(F)c(O)c2o1` [Example 77, 7-fluoro-8-hydroxy-N-((1-hydroxycyclohexyl)methyl)-4-oxo-4H-chromene-2-carboxamide] had an IC50 in [1] (Pf-KRS pIC50) of 100 nM. In addition, the EC50 in data set [2] was 126 nM; in the data set with Cryptosporidium parvum [3], 126 nM; in the data set on Hep G2 it was 39800 nM. Further, in the data set on Cryptosporidium parvum [4], the “% Reduction in parasitaemia” value is given as 99.6%.
As for `C[C@H]1CCC[C@H](C[C@H]2Cc3cc(O)cc(O)c3C(=O)O2)O1` [Cladosporin, cladosporin], the “selectivity vs HsLysRS” value on PfLysRS is listed as “more than 100 fold”; in data set [7] (Sm LysRS vs HsLysRS) it was “more than 60 fold”. The IC50 in data set [7] (Sharma et al., read-out: Sm LysRS IC50) was 97 nM. For the same molecule, in [8], the “inhibition of blood and liver stages of Plasmodium” value is “nanomolar inhibitor”. Also, the bioavailability result in data set [9] is “poorly bioavailable”.
As for `O=C(NCC1(O)CCCCC1)c1cc(=O)c2cc(Cl)ccc2o1` [Example 48, 6-chloro-N-[(1-hydroxycyclohexyl)methyl]-4-oxo-chromene-2-carboxamide], the IC50 in [1] (setting [10]) is 126 nM. The EC50 is 398 nM in data set [2]; 63.1 nM in the data set on Cryptosporidium parvum [3]; 7940 nM in the data set with Leishmania donovani [5]; > 50100 nM with THP-1 cells; 10000 nM in the data set on Leishmania donovani [6]; 31600 nM in the data set with Hep G2.
On to `O=C(NCC1(O)CCC(F)(F)CC1)c1cc(=O)c2cc(F)ccc2o1` [Example 54, N-[(4,4-difluoro-1-hydroxy-cyclohexyl)methyl]-6-fluoro-4-oxo-chromene-2-carboxamide], for which, in [1] (setting [10]), the IC50 is 126 nM and 251 nM. Also, in the data set on Cryptosporidium parvum [3], the “Cryptosporidium parvum pEC50” value came out at 5.8. Besides, the EC50 is 1260 nM with Cryptosporidium parvum [3]; 31600 nM in the data set on Leishmania donovani [5]; 50100 nM in the data set on THP-1 cells; 12600 nM in the data set on Leishmania donovani [6]; 50100 nM with Hep G2. In addition, in the data set on Plasmodium falciparum, the “% Reduction in parasitaemia” value is listed as 99.2%.
As for `O=C(NCC1CCCCC1)c1cc(=O)c2ccc(F)c(O)c2o1` [Example 78, N-(cyclohexylmethyl)-7-fluoro-8-hydroxy-4-oxo-4H-chromene-2-carboxamide], the IC50 in data set [1] (setting [10]) is 79.4 nM. Further, the EC50 is 100 nM in data set [2], 1 nM with Cryptosporidium parvum [3] and 20000 nM with Hep G2. Moreover, the “% Reduction in parasitaemia” value with Cryptosporidium parvum [4] is 99.4%.
